# Assay results: US11726083B2, “Method for testing drug response of cardiomyocytes” (Myoridge Co. Ltd., priority 2017, dated 2023)
# Like-named read-outs stand apart in the source and are kept apart here.
# System: cardiomyocytes prepared by inducing differentiation of a human iPS cell line (253G1)
# Details: for rate of change in heart rate / rate of change in Ca^2+ duration: 100% = no change
# [1] = sample 2A: 100 nM, culture medium not containing hemoglobin, liquid-surface distance 6.67 mm
# [2] = sample 2C: 100 nM, 0.5 mass % hemoglobin, liquid-surface distance 6.67 mm
# [3] = sample 2D: 1000 nM, 0.5 mass % hemoglobin, liquid-surface distance 6.67 mm
# [4] = sample 2E: 100 nM, 1.0 mass % hemoglobin, liquid-surface distance 6.67 mm
# [5] = sample 2F: 1000 nM, 1.0 mass % hemoglobin, liquid-surface distance 6.67 mm
# [6] = sample 3A: 100 nM, liquid-surface distance 8.33 mm
# [7] = sample 3C: 100 nM, liquid-surface distance 6.67 mm
# [8] = sample 3E: 100 nM, liquid-surface distance 5.00 mm
# [9] = sample 3G: 100 nM, liquid-surface distance 3.33 mm
# [10] = sample 3H: 1000 nM, liquid-surface distance 3.33 mm
# [11] = sample 3I: 100 nM, liquid-surface distance 1.67 mm
# [12] = sample 3J: 1000 nM, liquid-surface distance 1.67 mm
# [13] = sample 4A: 100 nM, control container (polystyrene), liquid-surface distance 6.67 mm
# [14] = sample 4C: 100 nM, oxygen-permeable container (VECELL 96-well plate), liquid-surface distance 6.67 mm
# [15] = sample 5M: 300 μM, no hemoglobin, liquid-surface distance 6.67 mm
# [16] = sample 5N: 300 μM, 2.0% by mass of hemoglobin, liquid-surface distance 1.0 mm
# [17] = sample 5P: 500 μM, 2.0% by mass of hemoglobin, liquid-surface distance 1.0 mm
molecule,measurement,setting,value
Cc1cccc(CCN2CCC(C(=O)c3ccc(NS(C)(=O)=O)cc3)CC2)n1 [E-4031],pulsation (pulsation arrest),"sample 5E: 0.1 μM, no hemoglobin, liquid-surface distance 6.67 mm",did not stop
same,pulsation (pulsation arrest),"sample 5F: 0.1 μM, 0.5% by mass of hemoglobin, liquid-surface distance 1.67 mm",did not stop
same,pulsation (pulsation arrest),"sample 5G: 0.3 μM, no hemoglobin, liquid-surface distance 6.67 mm",stopped at a high frequency
same,pulsation (pulsation arrest),"sample 5H: 0.3 μM, 0.5% by mass of hemoglobin, liquid-surface distance 1.67 mm",did not stop
CC(C)NCC(O)c1ccc(O)c(O)c1 (stereo not shown) [isoproterenol],expected drug response (tachycardic response),[1],detected
same,pulsation (pulsation arrest),[1],did not stop
same,pulsation (pulsation arrest),"sample 2B: 1000 nM, culture medium not containing hemoglobin, liquid-surface distance 6.67 mm",stopped at a high frequency
same,expected drug response,[2],detected
same,pulsation (pulsation arrest),[2],did not stop
same,expected drug response,[3],detected
same,pulsation (pulsation arrest),[3],did not stop at all
same,expected drug response,[4],detected
same,pulsation (pulsation arrest),[4],did not stop
same,expected drug response,[5],detected
same,pulsation (pulsation arrest),[5],did not stop at all
same,expected drug response (tachycardic response),[6],detected
same,pulsation (pulsation arrest),[6],did not stop
same,pulsation (pulsation arrest),"sample 3B: 1000 nM, liquid-surface distance 8.33 mm",stopped at a high frequency
same,expected drug response,[7],detected
same,pulsation (pulsation arrest),[7],did not stop
same,pulsation (pulsation arrest),"sample 3D: 1000 nM, liquid-surface distance 6.67 mm",stopped at a high frequency
same,expected drug response,[8],detected
same,pulsation (pulsation arrest),[8],did not stop
same,frequency of the occurrence of the pulsation arrest,"sample 3F: 1000 nM, liquid-surface distance 5.00 mm",about 50%
same,expected drug response,[9],detected
same,pulsation (pulsation arrest),[9],did not stop
same,expected drug response,[10],detected
same,pulsation (pulsation arrest),[10],hardly stopped
same,expected drug response,[11],detected
same,pulsation (pulsation arrest),[11],did not stop
same,expected drug response,[12],detected
same,pulsation (pulsation arrest),[12],did not stop at all
same,expected drug response (tachycardic response),[13],detected
same,pulsation (pulsation arrest),[13],did not stop
same,pulsation (pulsation arrest),"sample 4B: 1000 nM, control container (polystyrene), liquid-surface distance 6.67 mm",stopped at a high frequency
same,expected drug response,[14],detected
same,pulsation (pulsation arrest),[14],did not stop
same,pulsation (pulsation arrest),"sample 4D: 1000 nM, oxygen-permeable container (VECELL 96-well plate), liquid-surface distance 6.67 mm",stopped only at a low frequency
Cc1[nH]c(=O)c(C#N)cc1-c1ccncc1 [milrinone],expected drug response (tachycardic response),[15],not detected
same,pulsation (pulsation arrest),[15],did not stop
same,rate of change in heart rate,[15],79%
same,expected drug response,[16],detected
same,pulsation (pulsation arrest),[16],did not stop
same,rate of change in heart rate,[16],118%
same,pulsation (pulsation arrest),"sample 5O: 500 μM, no hemoglobin, liquid-surface distance 6.67 mm",stopped at a high frequency
same,expected drug response (tachycardic response),[17],detected
same,pulsation (pulsation arrest),[17],did not stop
same,rate of change in heart rate,[17],154%
CC(C)(C)c1ccc(C(O)CCCN2CCC(C(O)(c3ccccc3)c3ccccc3)CC2)cc1 (stereo not shown) [terfenadine],pulsation (pulsation arrest),"sample 5I: 0.1 μM, no hemoglobin, liquid-surface distance 6.67 mm",did not stop
same,pulsation (pulsation arrest),"sample 5J: 0.1 μM, 0.5% by mass of hemoglobin, liquid-surface distance 1.67 mm",did not stop
same,pulsation (pulsation arrest),"sample 5K: 0.7 μM, no hemoglobin, liquid-surface distance 6.67 mm",stopped at a high frequency
same,pulsation (pulsation arrest),"sample 5L: 0.7 μM, 0.5% by mass of hemoglobin, liquid-surface distance 1.67 mm",did not stop
same,rate of change in Ca^2+ duration,"sample 6A: 0.3 μM, 0.5% by mass of hemoglobin, liquid-surface distance 1.67 mm",about 135%
same,rate of change in Ca^2+ duration,"sample 6B: 0.5 μM, 0.5% by mass of hemoglobin, liquid-surface distance 1.67 mm",about 170%
"hemoglobin: bovine hemoglobin (Nacalai tesque 17553-92), oxygen carrier added to the culture medium",occurrence of the pulsation arrest of the cardiomyocytes during the drug response testing,"0.5 or 1.0 mass % hemoglobin added to the culture medium, isoproterenol 100/1000 nM, liquid-surface distance 6.67 mm (FIG. 3)",suppressed
